From publication PMC8402609, “Guiding the Immune Response to a Conserved Epitope in MSP2, an Intrinsically Disordered Malaria Vaccine Candidate” (Vaccines, 2021)
Where two headings read alike, the source gives them in different places. Where a SMILES comes first, the peptide text is derived from it. Bridges are numbered along the chain shown (N, C = ends).

Experiments:
[1] = molecular target: 4D11 IgG; test: SPR competition binding assay, mAb 4D11; parameters: species or system mouse; conditions: read-out: Kd against 4D11 IgG
Experimental: (§1) Affinities for peptide epitopes and dimer peptides to 4D11 and 9H4 IgG were measured by surface plasmon resonance (SPR) (Biacore T200, GE Healthcare, Parramatta, Australia) using a competition assay method developed previously. First, 3D7 MSP2 was immobilised on a CM5 chip. To determine binding, eight three-fold dilutions of peptide, from 10 µM stock were added with 50 nM 4D11/9H4 IgG to compete with the immobilised antigen. A standard curve was established by flowing eight two-fold dilutions of 4D11 or 9H4 IgG from a 100 nM stock solution.
Following the MD simulations, each peptide was synthesised by standard Fmoc synthesis. Orthogonal protection of cysteines was used to ensure that the desired disulfide bond was formed, leaving a single free cysteine for conjugation to an appropriate carrier for immunisation. […] Consequently, disulfide bond formation and cyclisation coupling were performed in solution. To determine if the additions incorporated into the dimer sequence hindered binding to 4D11, SPR was used to measure their binding affinity to the mAb (Table 2). […] For immunisations, the commonly used carrier protein, keyhole limpet hemocyanin (KLH) was chosen. As conjugation to KLH required a free thiol, an additional cysteine residue was included in all of the peptides (Figure 2).

[2] = molecular target: 9H4 IgG; test: SPR competition binding assay, mAb 9H4; parameters: species or system mouse; conditions: SPR competition assay (Biacore T200); 3D7 MSP2 immobilised on CM5 chip; eight three-fold dilutions of peptide from 10 µM with 50 nM 9H4 IgG; alanine scan of 16-residue MSP2_207–222; read-out: Kd against 9H4 IgG
Experimental: as §1
In our previous work, the minimal epitope and key residues involved in 4D11 binding were defined as the 8-residue peptide 3D7-MSP2_215–222, with Lys216, Glu217 and Asn218 crucial for binding. To characterise the epitope of 9H4 and compare it with that of 4D11, the same alanine-scan peptides were used to probe 9H4 binding (Figure 1A,B). Affinities for 9H4 binding were measured by SPR, using a competition binding assay described previously.

[3] = SPR competition assay (Biacore T200), 3D7 MSP2 immobilised on CM5 chip, eight three-fold dilutions of peptide from 10 µM with 50 nM 4D11 IgG, alanine scan of 16-residue MSP2_207–222
[4] = SPR competition binding assay, peptides for KLH conjugation (Table 2), 3D7 MSP2 on CM5 chip, 50 nM 4D11 IgG

SMILES | Kd [1, 3] [nM] | Kd [2] [nM] | Kd [1, 4] [nM]
CC(=O)N[C@@H](CO)C(=O)N[C@@H](CCC(N)=O)C(=O)N[C@@H](CCCCN)C(=O)N[C@@H](CCC(=O)O)C(=O)N[C@H]1CSSC[C@@H](C(=O)NCC(=O)N[C@@H](C)C(=O)N[C@@H](C)C(N)=O)NC(=O)[C@H](CC(N)=O)NC(=O)[C@H](CCC(=O)O)NC(=O)[C@H](CCCCN)NC(=O)[C@H](CC(N)=O)NC(=O)CNC(=O)[C@H](CC(=O)O)NC(=O)[C@H]([C@@H](C)O)NC1=O [3D7-MSP2_207–222 (WT)] (Ac-SQKECTDGNKENCGAA-NH2; disulfide 5-13) | 900 | 1500 | 
C[C@@H]1NC(=O)CNC(=O)[C@@H]2CSSC[C@H](NC(=O)[C@H](CC(N)=O)NC(=O)[C@H](CCC(=O)O)NC(=O)[C@H](CCCCN)NC(=O)[C@H](CC(N)=O)NC(=O)CNC(=O)CNC(=O)[C@H](C)NC1=O)C(=O)NCC(=O)N[C@@H](C)C(=O)N[C@@H](C)C(=O)N[C@@H](CS)C(=O)NCC(=O)N[C@@H](CC(N)=O)C(=O)N[C@@H](CCCCN)C(=O)N[C@@H](CCC(=O)O)C(=O)N[C@@H](CC(N)=O)C(=O)N2 [Peptide C2] (cyclo(AACGNKENCGAAGGNKENCG); disulfide 9-19) |  |  | 680
C[C@@H]1NC(=O)CNC(=O)[C@@H]2CSSC[C@H](NC(=O)[C@H](CC(N)=O)NC(=O)[C@H](CCC(=O)O)NC(=O)[C@H](CCCCN)NC(=O)[C@H](CC(N)=O)NC(=O)CNC(=O)[C@H](CS)NC(=O)CNC(=O)[C@H](C)NC1=O)C(=O)NCC(=O)N[C@@H](C)C(=O)N[C@@H](C)C(=O)NCC(=O)NCC(=O)NCC(=O)N[C@@H](CC(N)=O)C(=O)N[C@@H](CCCCN)C(=O)N[C@@H](CCC(=O)O)C(=O)N[C@@H](CC(N)=O)C(=O)N2 [Peptide C3] (cyclo(AAGCGNKENCGAAGGGNKENCG); disulfide 10-21) |  |  | 1040
CC(=O)N[C@@H](CO)C(=O)N[C@@H](CCC(N)=O)C(=O)N[C@@H](CCCCN)C(=O)N[C@@H](CCC(=O)O)C(=O)N[C@H]1CSSC[C@@H](C(=O)NCC(=O)N[C@@H](C)C(=O)N[C@@H](C)C(N)=O)NC(=O)[C@H](CC(N)=O)NC(=O)[C@H](CCC(=O)O)NC(=O)[C@H](CCCCN)NC(=O)[C@H](CC(N)=O)NC(=O)CNC(=O)[C@H](C)NC(=O)[C@H]([C@@H](C)O)NC1=O [Peptide D213A] (Ac-SQKECTAGNKENCGAA-NH2; disulfide 5-13) | 500 |  | 
CC(=O)N[C@@H](CO)C(=O)N[C@@H](CCC(N)=O)C(=O)N[C@@H](CCCCN)C(=O)N[C@@H](C)C(=O)N[C@H]1CSSC[C@@H](C(=O)NCC(=O)N[C@@H](C)C(=O)N[C@@H](C)C(N)=O)NC(=O)[C@H](CC(N)=O)NC(=O)[C@H](CCC(=O)O)NC(=O)[C@H](CCCCN)NC(=O)[C@H](CC(N)=O)NC(=O)CNC(=O)[C@H](CC(=O)O)NC(=O)[C@H]([C@@H](C)O)NC1=O [Peptide E210A] (Ac-SQKACTDGNKENCGAA-NH2; disulfide 5-13) | 500 | 1400 | 
CC(=O)N[C@@H](CO)C(=O)N[C@@H](CCC(N)=O)C(=O)N[C@@H](CCCCN)C(=O)N[C@@H](CCC(=O)O)C(=O)N[C@H]1CSSC[C@@H](C(=O)NCC(=O)N[C@@H](C)C(=O)N[C@@H](C)C(N)=O)NC(=O)[C@H](CC(N)=O)NC(=O)[C@H](C)NC(=O)[C@H](CCCCN)NC(=O)[C@H](CC(N)=O)NC(=O)CNC(=O)[C@H](CC(=O)O)NC(=O)[C@H]([C@@H](C)O)NC1=O [Peptide E217A] (Ac-SQKECTDGNKANCGAA-NH2; disulfide 5-13) | 219000 | 90 | 
CC(=O)N[C@@H](CO)C(=O)N[C@@H](CCC(N)=O)C(=O)N[C@@H](CCCCN)C(=O)N[C@@H](CCC(=O)O)C(=O)N[C@H]1CSSC[C@@H](C(=O)NCC(=O)N[C@@H](C)C(=O)N[C@@H](C)C(N)=O)NC(=O)[C@H](CC(N)=O)NC(=O)[C@H](CCC(=O)O)NC(=O)[C@H](CCCCN)NC(=O)[C@H](CC(N)=O)NC(=O)[C@H](C)NC(=O)[C@H](CC(=O)O)NC(=O)[C@H]([C@@H](C)O)NC1=O [Peptide G214A] (Ac-SQKECTDANKENCGAA-NH2; disulfide 5-13) | 400 | 70 | 
CC(=O)N[C@@H](CO)C(=O)N[C@@H](CCC(N)=O)C(=O)N[C@@H](CCCCN)C(=O)N[C@@H](CCC(=O)O)C(=O)N[C@H]1CSSC[C@@H](C(=O)N[C@@H](C)C(=O)N[C@@H](C)C(=O)N[C@@H](C)C(N)=O)NC(=O)[C@H](CC(N)=O)NC(=O)[C@H](CCC(=O)O)NC(=O)[C@H](CCCCN)NC(=O)[C@H](CC(N)=O)NC(=O)CNC(=O)[C@H](CC(=O)O)NC(=O)[C@H]([C@@H](C)O)NC1=O [Peptide G220A] (Ac-SQKECTDGNKENCAAA-NH2; disulfide 5-13) | 42200 | 2900 | 
CC(=O)N[C@@H](CO)C(=O)N[C@@H](CCC(N)=O)C(=O)N[C@@H](CCCCN)C(=O)N[C@@H](CCC(=O)O)C(=O)N[C@H]1CSSC[C@@H](C(=O)NCC(=O)N[C@@H](C)C(=O)N[C@@H](C)C(N)=O)NC(=O)[C@H](CC(N)=O)NC(=O)[C@H](CCC(=O)O)NC(=O)[C@H](C)NC(=O)[C@H](CC(N)=O)NC(=O)CNC(=O)[C@H](CC(=O)O)NC(=O)[C@H]([C@@H](C)O)NC1=O [Peptide K216A] (Ac-SQKECTDGNAENCGAA-NH2; disulfide 5-13) | 21000 | 90 | 
CC(=O)N[C@@H](CC(N)=O)C(=O)N[C@@H](CCCCN)C(=O)N[C@@H](CCC(=O)O)C(=O)N[C@@H](CC(N)=O)C(=O)N[C@H]1CSSC[C@@H](C(=O)NCC(=O)N[C@@H](C)C(=O)N[C@@H](C)C(=O)N[C@@H](CS)C(N)=O)NC(=O)[C@H](CC(N)=O)NC(=O)[C@H](CCC(=O)O)NC(=O)[C@H](CCCCN)NC(=O)[C@H](CC(N)=O)NC(=O)CNC(=O)CNC(=O)[C@H](C)NC(=O)[C@H](C)NC(=O)CNC1=O [Peptide L2] (Ac-NKENCGAAGGNKENCGAAC-NH2; disulfide 5-15) |  |  | 670
CC(=O)N[C@@H](CC(N)=O)C(=O)N[C@@H](CCCCN)C(=O)N[C@@H](CCC(=O)O)C(=O)N[C@@H](CC(N)=O)C(=O)N[C@H]1CSSC[C@@H](C(=O)NCC(=O)N[C@@H](C)C(=O)N[C@@H](C)C(=O)N[C@@H](CS)C(N)=O)NC(=O)[C@H](CC(N)=O)NC(=O)[C@H](CCC(=O)O)NC(=O)[C@H](CCCCN)NC(=O)[C@H](CC(N)=O)NC(=O)CNC(=O)CNC(=O)CNC(=O)[C@H](C)NC(=O)[C@H](C)NC(=O)CNC1=O [Peptide L3] (Ac-NKENCGAAGGGNKENCGAAC-NH2; disulfide 5-16) |  |  | 580
CC(=O)N[C@@H](CO)C(=O)N[C@@H](CCC(N)=O)C(=O)N[C@@H](CCCCN)C(=O)N[C@@H](CCC(=O)O)C(=O)N[C@H]1CSSC[C@@H](C(=O)NCC(=O)N[C@@H](C)C(=O)N[C@@H](C)C(N)=O)NC(=O)[C@H](CC(N)=O)NC(=O)[C@H](CCC(=O)O)NC(=O)[C@H](CCCCN)NC(=O)[C@H](C)NC(=O)CNC(=O)[C@H](CC(=O)O)NC(=O)[C@H]([C@@H](C)O)NC1=O [Peptide N215A] (Ac-SQKECTDGAKENCGAA-NH2; disulfide 5-13) | 500 | 100 | 
CC(=O)N[C@@H](CO)C(=O)N[C@@H](CCC(N)=O)C(=O)N[C@@H](CCCCN)C(=O)N[C@@H](CCC(=O)O)C(=O)N[C@H]1CSSC[C@@H](C(=O)NCC(=O)N[C@@H](C)C(=O)N[C@@H](C)C(N)=O)NC(=O)[C@H](C)NC(=O)[C@H](CCC(=O)O)NC(=O)[C@H](CCCCN)NC(=O)[C@H](CC(N)=O)NC(=O)CNC(=O)[C@H](CC(=O)O)NC(=O)[C@H]([C@@H](C)O)NC1=O [Peptide N218A] (Ac-SQKECTDGNKEACGAA-NH2; disulfide 5-13) | 6000 | 2700 | 
CC(=O)N[C@@H](CO)C(=O)N[C@@H](C)C(=O)N[C@@H](CCCCN)C(=O)N[C@@H](CCC(=O)O)C(=O)N[C@H]1CSSC[C@@H](C(=O)NCC(=O)N[C@@H](C)C(=O)N[C@@H](C)C(N)=O)NC(=O)[C@H](CC(N)=O)NC(=O)[C@H](CCC(=O)O)NC(=O)[C@H](CCCCN)NC(=O)[C@H](CC(N)=O)NC(=O)CNC(=O)[C@H](CC(=O)O)NC(=O)[C@H]([C@@H](C)O)NC1=O [Peptide Q208A] (Ac-SAKECTDGNKENCGAA-NH2; disulfide 5-13) | 400 | 2900 | 
CC(=O)N[C@@H](C)C(=O)N[C@@H](CCC(N)=O)C(=O)N[C@@H](CCCCN)C(=O)N[C@@H](CCC(=O)O)C(=O)N[C@H]1CSSC[C@@H](C(=O)NCC(=O)N[C@@H](C)C(=O)N[C@@H](C)C(N)=O)NC(=O)[C@H](CC(N)=O)NC(=O)[C@H](CCC(=O)O)NC(=O)[C@H](CCCCN)NC(=O)[C@H](CC(N)=O)NC(=O)CNC(=O)[C@H](CC(=O)O)NC(=O)[C@H]([C@@H](C)O)NC1=O [Peptide S207A] (Ac-AQKECTDGNKENCGAA-NH2; disulfide 5-13) | 500 | 2900 | 
